Data from ChEMBL document CHEMBL1649268, “Comparative in vitro activity profile of oritavancin against recent gram-positive clinical isolates” (2009).
Values after ≈ are worked out from the molar mass of the structure shown.

Experiments:
Format in all cases: functional
Streptococcus pneumoniae [1] = experiment: Antimicrobial activity against Streptococcus pneumoniae clinical isolates by broth microdilution method
Streptococcus pneumoniae [2] = experiment: Antimicrobial activity against penicillin-susceptible Streptococcus pneumoniae clinical isolates by broth microdilution method
Streptococcus pneumoniae [3] = experiment: Antimicrobial activity against penicillin-intermediate Streptococcus pneumoniae clinical isolates by broth microdilution method
Streptococcus pneumoniae [4] = experiment: Antimicrobial activity against penicillin-resistant Streptococcus pneumoniae clinical isolates by broth microdilution method
Streptococcus [5] = experiment: Antimicrobial activity against erythromycin-nonsusceptible Streptococcus Group F clinical isolates by broth microdilution method
Streptococcus [6] = experiment: Antimicrobial activity against erythromycin-susceptible Streptococcus Group F clinical isolates by broth microdilution method
Streptococcus [7] = experiment: Antimicrobial activity against Streptococcus Group F clinical isolates by broth microdilution method
[8] = Antimicrobial activity against erythromycin-nonsusceptible Streptococcus Group G clinical isolates by broth microdilution method; settings: Streptococcus sp. 'group G'
[9] = Antimicrobial activity against erythromycin-susceptible Streptococcus Group G clinical isolates by broth microdilution method; settings: Streptococcus sp. 'group G'
[10] = Antimicrobial activity against Streptococcus Group G clinical isolates by broth microdilution method; settings: Streptococcus sp. 'group G'
[11] = Antimicrobial activity against erythromycin-nonsusceptible Streptococcus Group C clinical isolates by broth microdilution method; settings: Streptococcus sp. 'group C'
[12] = Antimicrobial activity against erythromycin-susceptible Streptococcus Group C clinical isolates by broth microdilution method; settings: Streptococcus sp. 'group C'
[13] = Antimicrobial activity against Streptococcus Group C clinical isolates by broth microdilution method; settings: Streptococcus sp. 'group C'
Streptococcus pyogenes [14] = experiment: Antimicrobial activity against erythromycin-nonsusceptible Streptococcus pyogenes clinical isolates by broth microdilution method
Streptococcus pyogenes [15] = experiment: Antimicrobial activity against erythromycin-susceptible Streptococcus pyogenes clinical isolates by broth microdilution method
Streptococcus pyogenes [16] = experiment: Antimicrobial activity against Streptococcus pyogenes clinical isolates by broth microdilution method
Streptococcus agalactiae [17] = experiment: Antimicrobial activity against erythromycin-nonsusceptible Streptococcus agalactiae clinical isolates by broth microdilution method
Streptococcus agalactiae [18] = experiment: Antimicrobial activity against erythromycin-susceptible Streptococcus agalactiae clinical isolates by broth microdilution method
Streptococcus agalactiae [19] = experiment: Antimicrobial activity against Streptococcus agalactiae clinical isolates by broth microdilution method
Enterococcus faecium [20] = experiment: Antimicrobial activity against Enterococcus faecium expressing VanB gene clinical isolates by broth microdilution method
Enterococcus faecium [21] = experiment: Antimicrobial activity against Enterococcus faecium expressing VanA gene clinical isolates by broth microdilution method
Enterococcus faecium [22] = experiment: Antimicrobial activity against vancomycin-nonsusceptible Enterococcus faecium clinical isolates by broth microdilution method
Enterococcus faecium [23] = experiment: Antimicrobial activity against vancomycin-susceptible Enterococcus faecium clinical isolates by broth microdilution method
Enterococcus faecium [24] = experiment: Antimicrobial activity against Enterococcus faecium clinical isolates by broth microdilution method
Enterococcus faecalis [25] = experiment: Antimicrobial activity against Enterococcus faecalis expressing VanB gene clinical isolates by broth microdilution method
Enterococcus faecalis [26] = experiment: Antimicrobial activity against Enterococcus faecalis expressing VanA gene clinical isolates by broth microdilution method
Enterococcus faecalis [27] = experiment: Antimicrobial activity against vancomycin-nonsusceptible Enterococcus faecalis clinical isolates by broth microdilution method
Enterococcus faecalis [28] = experiment: Antimicrobial activity against vancomycin-susceptible Enterococcus faecalis clinical isolates by broth microdilution method
Enterococcus faecalis [29] = experiment: Antimicrobial activity against Enterococcus faecalis clinical isolates by broth microdilution method
[30] = system: Staphylococcus haemolyticus; experiment: Antimicrobial activity against oxacillin-resistant Staphylococcus haemolyticus clinical isolates by broth microdilution method
[31] = system: Staphylococcus haemolyticus; experiment: Antimicrobial activity against oxacillin-susceptible Staphylococcus haemolyticus clinical isolates by broth microdilution method
[32] = system: Staphylococcus haemolyticus; experiment: Antimicrobial activity against Staphylococcus haemolyticus clinical isolates by broth microdilution method
[33] = system: Staphylococcus epidermidis; experiment: Antimicrobial activity against oxacillin-resistant Staphylococcus epidermidis clinical isolates by broth microdilution method
[34] = system: Staphylococcus epidermidis; experiment: Antimicrobial activity against oxacillin-susceptible Staphylococcus epidermidis clinical isolates by broth microdilution method
[35] = system: Staphylococcus epidermidis; experiment: Antimicrobial activity against Staphylococcus epidermidis clinical isolates by broth microdilution method
Staphylococcus aureus [36] = experiment: Antimicrobial activity against oxacillin-resistant Staphylococcus aureus clinical isolates by broth microdilution method
Staphylococcus aureus [37] = experiment: Antimicrobial activity against oxacillin-susceptible Staphylococcus aureus clinical isolates by broth microdilution method
Staphylococcus aureus [38] = experiment: Antimicrobial activity against Staphylococcus aureus clinical isolates by broth microdilution method
Staphylococcus aureus [39] = experiment: Antimicrobial activity against vancomycin-resistant Staphylococcus aureus clinical isolates
Staphylococcus aureus [40] = experiment: Antimicrobial activity against vancomycin-intermediate Staphylococcus aureus clinical isolates
Staphylococcus aureus [41] = experiment: Antimicrobial activity against heterogeneous vancomycin-intermediate Staphylococcus aureus clinical isolates
Staphylococcus aureus [42] = experiment: Antimicrobial activity against vancomycin- susceptible Staphylococcus aureus clinical isolates

Which results are given for CN[C@H](CC(C)C)C(=O)N[C@H]1C(=O)N[C@@H](CC(N)=O)C(=O)N[C@H]2C(=O)N[C@H]3C(=O)N[C@H](C(=O)N[C@H](C(=O)O)c4cc(O)cc(O)c4-c4cc3ccc4O)[C@H](O[C@H]3C[C@](C)(N)[C@@H](O)[C@H](C)O3)c3ccc(c(Cl)c3)Oc3cc2cc(c3O[C@@H]2O[C@H](CO)[C@@H](O)[C@H](O)[C@H]2O[C@H]2C[C@](C)(NCc3ccc(-c4ccc(Cl)cc4)cc3)[C@@H](O)[C@H](C)O2)Oc2ccc(cc2Cl)[C@H]1O [ORITAVANCIN]?
MIC90 (Streptococcus pneumoniae [1]): 0.008 µg/mL (≈ 0.00446 µM); MIC90 (Streptococcus pneumoniae [2]): 0.004 µg/mL (≈ 0.00223 µM); MIC90 (Streptococcus pneumoniae [3]): 0.008 µg/mL (≈ 0.00446 µM); MIC90 (Streptococcus pneumoniae [4]): 0.008 µg/mL (≈ 0.00446 µM); MIC90 (Streptococcus [5]): 0.25 µg/mL (≈ 0.139 µM); MIC90 (Streptococcus [6]): 0.5 µg/mL (≈ 0.279 µM); MIC90 (Streptococcus [7]): 0.5 µg/mL (≈ 0.279 µM); MIC90 [8]: 0.25 µg/mL (≈ 0.139 µM); MIC90 [9]: 0.5 µg/mL (≈ 0.279 µM); MIC90 [10]: 0.5 µg/mL (≈ 0.279 µM); MIC90 [11]: 0.25 µg/mL (≈ 0.139 µM); MIC [12]: ≤ 0.0005 µg/mL; MIC90 [13]: 0.5 µg/mL (≈ 0.279 µM); MIC90 (Streptococcus pyogenes [14]): 0.25 µg/mL (≈ 0.139 µM); MIC90 (Streptococcus pyogenes [15]): 0.25 µg/mL (≈ 0.139 µM); MIC90 (Streptococcus pyogenes [16]): 0.25 µg/mL (≈ 0.139 µM); MIC90 (Streptococcus agalactiae [17]): 0.25 µg/mL (≈ 0.139 µM); MIC90 (Streptococcus agalactiae [18]): 0.25 µg/mL (≈ 0.139 µM); MIC90 (Streptococcus agalactiae [19]): 0.25 µg/mL (≈ 0.139 µM); MIC90 (Enterococcus faecium [20]): 0.06 µg/mL (≈ 0.0335 µM); MIC90 (Enterococcus faecium [21]): 0.25 µg/mL (≈ 0.139 µM); MIC90 (Enterococcus faecium [22]): 0.25 µg/mL (≈ 0.139 µM); MIC90 (Enterococcus faecium [23]): 0.03 µg/mL (≈ 0.0167 µM); MIC90 (Enterococcus faecium [24]): 0.12 µg/mL (≈ 0.0669 µM); MIC90 (Enterococcus faecalis [25]): 0.06 µg/mL (≈ 0.0335 µM); MIC90 (Enterococcus faecalis [26]): 1 µg/mL (≈ 0.558 µM); MIC90 (Enterococcus faecalis [27]): 1 µg/mL (≈ 0.558 µM); MIC90 (Enterococcus faecalis [28]): 0.06 µg/mL (≈ 0.0335 µM); MIC90 (Enterococcus faecalis [29]): 0.06 µg/mL (≈ 0.0335 µM); MIC90 [30]: 0.12 µg/mL (≈ 0.0669 µM); MIC90 [31]: 0.06 µg/mL (≈ 0.0335 µM); MIC90 [32]: 0.12 µg/mL (≈ 0.0669 µM); MIC90 [33]: 0.25 µg/mL (≈ 0.139 µM); MIC90 [34]: 0.25 µg/mL (≈ 0.139 µM); MIC90 [35]: 0.25 µg/mL (≈ 0.139 µM); MIC90 (Staphylococcus aureus [36]): 0.12 µg/mL (≈ 0.0669 µM); MIC90 (Staphylococcus aureus [37]): 0.12 µg/mL (≈ 0.0669 µM); MIC90 (Staphylococcus aureus [38]): 0.12 µg/mL (≈ 0.0669 µM); MIC90 (Staphylococcus aureus [39]): 0.5 µg/mL (≈ 0.279 µM); MIC90 (Staphylococcus aureus [40]): 1 µg/mL (≈ 0.558 µM); MIC90 (Staphylococcus aureus [41]): 1 µg/mL (≈ 0.558 µM); MIC90 (Staphylococcus aureus [42]): 0.12 µg/mL (≈ 0.0669 µM)
